Values joined by “and” are separate entries in the source; they are usually repeats but may differ in a detail not shown here. Equal values may be shown once.
How the values were obtained:
in vivo [1] = conditions: male, Th-MYCN, mouse
Description: Male Th-MYCN mice, approximately 5-6 weeks of age, with spontaneous neuroblastoma tumor development commenced treatment according to Table 6.1 when tumors were approximately 5 mm in size. […] Time point: three treatments, cull 24 hours after last treatment in the morning.
Sample Preparation. Animals were euthanized on the morning of the 4th day, after three days of treatment and shaved, and then the carcasses were frozen. Tissues stored at −80° C. were placed inside the cryostat. The temperature of the cryostat was maintained around −20° C. and −40° C. 20-am tissue sections in the sagittal plane going through the left eye were obtained for each carcass. Tissue sections were mounted directly on indium tin oxide (ITO) slides.
Tissue sections on ITO slides were placed in a desiccator for 15 minutes before matrix deposition. An image of the slides was then acquired with a scanner to synchronize positions of the tissue sections with the target of the laser.
Dilution series of the test items were prepared in water from the stock solutions. […] A spot of pure solvent was added as a negative control. Slides were then placed in a desiccator for 15 minutes before MALDI matrix deposition. The control liver tissue consisted of a liver homogenate spiked with an olanzapine standard at 40 g/g of tissue. Sections of the liver homogenate were prepared and added on each ITO slide in order to monitor the signal of the FTICR through the different acquisitions and thus validate the comparison between slides.
For AMXT 1501, 2,5-dihydroxybenzoic acid (DHB) at 40 mg/ml in 1:1 MeOH/H2O with 1% trifluoroacetic acid (TFA) and 25 nM of ^13C4-AMXT 1501 was sprayed on the samples with an automatic sprayer (TM-Sprayer, HTX-Imaging).
The mass spectrometry imaging (MSI) acquisitions were performed using the parameters in Table 6.2 with a data reduction parameter set at 95%. MSI data were acquired and analyzed with FlexImaging 4.1 (Bruker Daltonics), Data Analysis 4.0 (Bruker Daltonics) and Multimaging™ 1.2.2 (ImaBioTech).
Intensity scales representing the molecular signal were adjusted for each image to discriminate the noise from the molecular signal but also to give the best visualization of the signal across the sections. […] Convolution step was performed on the original images using a normalized uniform kernel, which averages the values around a position. The kernel size was manually optimized for the analysis, minimizing the background noise. Based on the MSI data set on the tissue sections and the dilution series, the quantitation of the test items was performed with the IS approach. A correlation between the calibration curve and the signal obtained on the tissues was performed in order to determine the concentration of the test items per histological structure in g/g of tissue and μM.

in vivo [2] = conditions: BALB/c, mouse, 2.5 mg/kg

In the case of `CCCCCCCCCCCCCCCC(=O)NCCCC[C@@H](N)C(=O)NCCCNCCCCNCCCN` [AMXT 1501, D-lys(palmitoyl)-spermine], the concentration at 96 h (in vivo [1]; brown fat, sc, 2.5 mg/kg) is reported as 8330 ng/g, the concentration at 96 h (in vivo [1]; cardiac blood, sc, 2.5 mg/kg) is reported as 8370 ng/g and the concentration at 96 h (in vivo [1]; eye, sc, 2.5 mg/kg) is reported as 9300 ng/g. For the same compound, the concentration at 96 h (in vivo [1]; intestine contents, sc, 2.5 mg/kg) was 8470 ng/g, the concentration at 96 h (in vivo [1]; intestine wall, sc, 2.5 mg/kg) was 9000 ng/g and the concentration at 96 h (in vivo [1]; intestine wall, subcutaneous, 2.5 mg/kg) was 11400 ng/g. The concentration at 96 h (in vivo [1]; kidney, sc, 2.5 mg/kg) was 5640 ng/g, the concentration at 96 h (in vivo [1]; kidney, subcutaneous, 2.5 mg/kg) was 12100 ng/g and the concentration at 96 h (in vivo [1]; liver, sc, 2.5 mg/kg) was 8870 ng/g. The concentration at 96 h (in vivo [1]; liver, subcutaneous, 2.5 mg/kg) was 9530 ng/g, the concentration at 96 h (in vivo [1]; lung, sc, 2.5 mg/kg) was 14500 ng/g and the concentration at 96 h (in vivo [1]; lung, subcutaneous, 2.5 mg/kg) was 17000 ng/g. The concentration at 96 h (in vivo [1]; myocardium, sc, 2.5 mg/kg) was 8440 ng/g, the concentration at 96 h (in vivo [1]; myocardium, subcutaneous, 2.5 mg/kg) was 9590 ng/g and the concentration at 24 h (in vivo [1]; organs (range across organs), subcutaneous, 2.5 mg/kg) was 3360 ng/g to 17000 ng/g and 5.9 µM to 29.9 µM. The concentration at 24 h (in vivo [1]; organs, range from intestine contents to lung, subcutaneous, 2.5 mg/kg) was 3360 to 17000 ng/g, the concentration at 96 h (in vivo [1]; pancreas, sc, 2.5 mg/kg) was 8430 ng/g and the concentration at 96 h (in vivo [1]; pancreas, subcutaneous, 2.5 mg/kg) was 8540 ng/g. For the same compound, the concentration at 96 h (in vivo [1]; spleen, subcutaneous, 2.5 mg/kg) was 12900 ng/g, the concentration at 96 h (in vivo [1]; stomach contents, sc, 2.5 mg/kg) was 8800 ng/g and the concentration at 96 h (in vivo [1]; stomach contents, subcutaneous, 2.5 mg/kg) was 8480 ng/g. For the same compound, the concentration at 96 h (in vivo [1]; stomach wall, sc, 2.5 mg/kg) was 8550 ng/g, the concentration at 96 h (in vivo [1]; stomach wall, subcutaneous, 2.5 mg/kg) was 8810 ng/g and the concentration at 96 h (in vivo [1]; testis, sc, 2.5 mg/kg) was 9160 ng/g. For the same compound, the concentration at 96 h (in vivo [1]; testis, subcutaneous, 2.5 mg/kg) was 9820 ng/g, the concentration at 96 h (in vivo [1]; thymus, sc, 2.5 mg/kg) was 10700 ng/g and the concentration at 96 h (in vivo [1]; thymus, subcutaneous, 2.5 mg/kg) was 13900 ng/g. For the same compound, the concentration at 96 h (in vivo [1]; tumor, sc, 2.5 mg/kg) was 10000 ng/g, the concentration at 24 h (in vivo [1]; tumor, subcutaneous) was 12.7 µM and the concentration at 24 h (in vivo [1]; tumor, subcutaneous, 2.5 mg/kg) was 7230 ng/mL and 10000 ng/g and 17.6 µM. The AUC (in vivo [2]; plasma, sc) was 8270 ng·h/mL, the AUC(0-inf) (in vivo [2]; plasma, sc) was 8890 ng·h/mL and the Cmax (in vivo [2]; plasma, sc) was 978 ng/mL. The Kp (in vivo [2]; tumor and plasma, sc) was 15.5, the Kp at 72 h (in vivo [2]; tumor and plasma, sc) was 894 and the Kp (in vivo [2]; tumor and plasma, subcutaneous) was 18. For the same compound, the concentration at 72 h (in vivo [2]; tumor, subcutaneous) was ~1000 ng/mL.

— patent publication US20230321012A1 (priority 2021, published 2023)
